Source: paper PMC9865212, “Compounds from the Petroleum Ether Extract of Wedelia chinensis with Cytotoxic, Anticholinesterase, Antioxidant, and Antimicrobial Activities” (Molecules, 2023)
Converted amounts (≈) assume the structure as drawn. Read-outs that look alike come from different tables or passages of the source.

Columns and labels:
[1] = system: Shigella shiga; assay: microbe, parasite or virus in culture; format: cell-based, Shigella shiga (ATCC-26107); conditions: for zone of inhibition at 400 µg/disc: Shigella
[2] = system: Strep-β-haemolyticus; assay: organism not typed; format: cell-based, Streptococcus-ß-haemolyticus (ATCC-10389)
[3] = system: Aspergillus niger; format: cell-based, Aspergillus niger (ATCC-1204)
[4] = system: Sarcina lutea; assay: microbe, parasite or virus in culture; format: cell-based, Sarcina lutea (QL-1660); conditions: for zone of inhibition at 400 µg/disc: Micrococcus luteus
[5] = system: Shigella boydii; assay: microbe, parasite or virus in culture; format: cell-based, Shigella boydii (AL-17313)
[6] = system: Candida species; assay: microbe, parasite or virus in culture; format: cell-based
[7] = system: Fusarium species; assay: microbe, parasite or virus in culture; format: cell-based
[8] = biological target: T1, AChE enzyme from mice brain (Mus musculus, UniProt P21836); assay: biochemical
T1 construct: We used the prepared AChE enzyme from mice brain; from tissue; host or cells: mouse brain
Experimental: (§1) We used the prepared AChE enzyme from mice brain and BChE enzyme from human blood of a volunteer that has been mentioned earlier. Various concentrations of the compound (500 μL) were mixed with the enzyme solution (500 μL) and incubated at 37 °C for 30 min. A reaction mixture was prepared that contained 0.5 mM acetylthiocholine/butyrylthiocholine and 1 mM DTNB in 50 mM sodium phosphate buffer (pH 8.0). To the reaction mixture (3.5 mL), the enzyme solution containing compound was added, incubated, and immediately the absorbance of the solution was determined at 412 nm. […] The percent inhibition was calculated by dividing the difference of sample absorbance from control with control absorbance × 100.

[9] = system: Pseudomonas aeruginosa; assay: microbe, parasite or virus in culture; format: cell-based, Pseudomonas aeruginosa (ATCC-27853)
[10] = Brine shrimp lethality bioassay (cytotoxicity); conditions: Artemia salina (brine shrimp nauplii), in vivo
[11] = Reducing power assay (antioxidant, Fe3+ to Fe2+); conditions: at a concentration of 40 µg/mL, absorbance at 700 nm
[12] = biological target: T2, BChE enzyme from human blood (Homo sapiens, UniProt P06276); assay: Anti-BChE assay, Ellman method; format: biochemical
T2 construct: BChE enzyme from human blood of a volunteer; from tissue; host or cells: human blood of a volunteer
Experimental: as §1

[13] = system: Shigella sonnei; assay: microbe, parasite or virus in culture; format: cell-based, Shigella sonnei (AJ-8992)
[14] = system: Escherichia coli; assay: microbe, parasite or virus in culture; format: cell-based, Escherichia coli (FPFC-1407)
[15] = system: Shigella dysenteriae; assay: microbe, parasite or virus in culture; format: cell-based, Shigella dysenteriae (AL-35587)
[16] = system: Bacillus Subtilis; assay: microbe, parasite or virus in culture; format: cell-based, Bacillus subtilis (QL-40)
[17] = system: Bacillus megaterium; assay: microbe, parasite or virus in culture; format: cell-based, Bacillus megaterium (QL-38); conditions: for zone of inhibition at 400 µg/disc: Priestia megaterium
[18] = system: Shigella flexneriae; assay: microbe, parasite or virus in culture; format: cell-based, Shigella flexneriae (AM-36282)
[19] = system: Staphylococcus aureus; assay: microbe, parasite or virus in culture; format: cell-based, Staphylococcus aureus (ATCC-259233)
[20] = system: Aspergillus flavus; assay: microbe, parasite or virus in culture; format: cell-based, Aspergillus flavus (ATCC-9807)
[21] = system: Salmonella typhi; assay: microbe, parasite or virus in culture; format: cell-based, Salmonella typhi (ATCC-14028); conditions: for zone of inhibition at 400 µg/disc: Salmonella enterica
[22] = system: Klebsiella species; assay: microbe, parasite or virus in culture; format: cell-based
[23] = system: brine shrimp nauplii (Artemia salina Lech); assay: Brine shrimp lethality bioassay (cytotoxicity); conditions: brine shrimp lethality, 5–80 μg/mL

T2 sequence (P06276 29-602): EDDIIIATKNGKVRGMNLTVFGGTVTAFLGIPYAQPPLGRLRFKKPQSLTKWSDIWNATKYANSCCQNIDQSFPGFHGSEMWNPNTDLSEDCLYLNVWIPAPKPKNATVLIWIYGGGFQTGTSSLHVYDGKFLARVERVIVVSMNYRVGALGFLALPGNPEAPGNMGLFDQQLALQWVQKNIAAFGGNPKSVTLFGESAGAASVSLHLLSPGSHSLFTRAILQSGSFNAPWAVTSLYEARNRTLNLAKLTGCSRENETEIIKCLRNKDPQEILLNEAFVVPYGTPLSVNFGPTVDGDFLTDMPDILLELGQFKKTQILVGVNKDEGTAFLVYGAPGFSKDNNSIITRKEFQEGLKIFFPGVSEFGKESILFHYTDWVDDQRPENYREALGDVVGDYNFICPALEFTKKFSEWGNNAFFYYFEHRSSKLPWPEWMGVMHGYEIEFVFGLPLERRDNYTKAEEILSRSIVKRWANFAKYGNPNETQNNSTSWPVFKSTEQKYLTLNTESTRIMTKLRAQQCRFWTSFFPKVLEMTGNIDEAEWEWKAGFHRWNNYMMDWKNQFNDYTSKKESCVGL
T1 sequence (P21836 32-614): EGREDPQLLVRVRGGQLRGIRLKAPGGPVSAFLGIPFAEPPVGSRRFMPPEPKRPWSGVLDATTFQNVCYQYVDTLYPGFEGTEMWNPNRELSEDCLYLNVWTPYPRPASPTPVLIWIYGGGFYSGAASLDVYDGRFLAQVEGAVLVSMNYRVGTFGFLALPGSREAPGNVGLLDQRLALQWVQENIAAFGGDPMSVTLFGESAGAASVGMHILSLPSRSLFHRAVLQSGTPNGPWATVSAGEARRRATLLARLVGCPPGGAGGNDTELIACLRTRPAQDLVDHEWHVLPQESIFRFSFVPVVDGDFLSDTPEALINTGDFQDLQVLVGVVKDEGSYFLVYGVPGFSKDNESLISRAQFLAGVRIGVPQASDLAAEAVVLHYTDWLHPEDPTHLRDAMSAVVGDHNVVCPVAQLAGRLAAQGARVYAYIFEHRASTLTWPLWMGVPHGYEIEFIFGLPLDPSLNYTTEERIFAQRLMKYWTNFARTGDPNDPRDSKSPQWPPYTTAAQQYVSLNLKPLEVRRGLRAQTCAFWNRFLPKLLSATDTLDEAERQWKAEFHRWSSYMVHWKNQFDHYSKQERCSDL

Row | Structure (SMILES) | zone of inhibition at 400 µg/disc [1] [mm] | zone of inhibition at 400 µg/disc ([2]; 400 μg/disc) [mm] | Zone of Inhibition ([3]; 400μg/disc) | zone of inhibition at 400 µg/disc ([4]; 400 μg/disc) [mm] | zone of inhibition at 400 µg/disc ([5]; 400 μg/disc) [mm] | IC50 [8] [µM] | zone of inhibition at 400 µg/disc ([9]; 400 μg/disc) [mm] | LC50 at 24 h [10] [µg/mL] | absorbance (reducing power) [11] | IC50 [12] [µM] | zone of inhibition at 400 µg/disc ([13]; 400 μg/disc) [mm] | zone of inhibition at 400 µg/disc ([14]; 400 μg/disc) [mm] | zone of inhibition at 400 µg/disc ([15]; 400 μg/disc) [mm] | zone of inhibition at 400 µg/disc ([16]; 400 μg/disc) [mm] | zone of inhibition at 400 µg/disc ([17]; 400 μg/disc) [mm] | zone of inhibition at 400 µg/disc ([18]; 400 μg/disc) [mm] | zone of inhibition at 400 µg/disc ([19]; 400 μg/disc) [mm] | zone of inhibition at 400 µg/disc ([21]; 400 μg/disc) [mm] | zone of inhibition at 400 µg/disc ([22]; 400 μg/disc) [mm] | Zone of Inhibition ([6]; 400μg/disc) | further results
1 | C=C1C[C@@]23CCC4[C@](C)(C(=O)O)CCC[C@@]4(C)[C@@H]2CC[C@@H]1C3 (single isomer, unassigned; (-)) [Compound 2, (-) kaur-16-en-19-oic acid] | 15 | 18 | − | 16 | 14 | 115 | 16 | 16.2 ± 1.11 (≈ 53.5 µM) | 1.26 | 111 | 13 | 16 | 20 | 14 | 12 | 13 | 13 | 15 | 17 |  | zone of inhibition at 400 µg/disc ([6]; 400μg/disc): 13 mm; zone of inhibition at 400 µg/disc ([7]; 400μg/disc): 11 mm; zone of inhibition at 400 µg/disc ([20]; 400μg/disc): 17 mm
2 | C[C@@]12CCC[C@@](C)(C(=O)O)[C@H]1CC[C@@]13C[C@@H](CC[C@H]12)[C@](C)(O)C3 [Compound 1, (-) kaur-16α-hydroxy-19-oic acid] | 14 | 17 | − | 17 | 13 |  | 15 | 12.4 ± 0.87 (≈ 38.8 µM) | 1.55 |  | 15 | 14 | 19 | 13 | 14 | 12 | 23 | 13 | 15 | inactive and − | zone of inhibition at 400 µg/disc ([7]; 400μg/disc): 12 mm; IC50 ([8]; mean ± SD (n = 3), read-out: IC50, inhibition of acetylcholinesterase (AChE) (converted)): 152 µM; IC50 ([12]; mean ± SD (n = 3), read-out: IC50, inhibition of butyrylcholinesterase (BChE) (converted)): 145 µM; zone of inhibition at 400 µg/disc ([20]; 400μg/disc): 14 mm
3 | CC[C@H](CC[C@@H](C)[C@H]1CC[C@H]2[C@@H]3CC=C4C[C@@H](O)CC[C@]4(C)[C@H]3CC[C@]12C)C(C)C [Compound 3, β-sitosterol] |  |  | − |  |  | 107 |  |  |  | 104 |  |  |  |  |  |  |  |  |  | − | Zone of Inhibition [1]: −; Zone of Inhibition ([2]; 400 μg/disc): −; Zone of Inhibition ([4]; 400 μg/disc): −; Zone of Inhibition ([5]; 400 μg/disc): −; Zone of Inhibition ([7]; 400μg/disc): −; Zone of Inhibition ([9]; 400 μg/disc): −; cytotoxic effects (in words) [23]: All the compounds except 3 showed significant cytotoxic effects; Zone of Inhibition ([13]; 400 μg/disc): −; Zone of Inhibition ([14]; 400 μg/disc): −; Zone of Inhibition ([15]; 400 μg/disc): −; Zone of Inhibition ([16]; 400 μg/disc): −; Zone of Inhibition ([17]; 400 μg/disc): −; Zone of Inhibition ([18]; 400 μg/disc): −; Zone of Inhibition ([19]; 400 μg/disc): −; Zone of Inhibition ([20]; 400μg/disc): −; Zone of Inhibition ([21]; 400 μg/disc): −; Zone of Inhibition ([22]; 400 μg/disc): −
4 | CC(C)C=CC[C@@H](C)[C@H]1CC[C@H]2[C@@H]3CC=C4CC(O)CC[C@]4(C)[C@H]3CC[C@]12C (some centres unmarked) [Compound 4, cholesta-5,23-dien-3-ol] | 14 | 12 | − | 13 | 10 | 117 | 12 | 14.3 ± 0.87 (≈ 37.1 µM) | 1.89 | 124 | 12 | 13 | 13 | 12 | 12 | 11 | 9 | 10 | 13 | − | Zone of Inhibition ([7]; 400μg/disc): −; Zone of Inhibition ([20]; 400μg/disc): −
5 | NC[C@H]1O[C@H](O[C@H]2[C@H](O)[C@@H](O[C@H]3O[C@H](CO)[C@@H](O)[C@H](N)[C@H]3O)[C@H](N)C[C@@H]2N)[C@H](O)[C@@H](O)[C@@H]1O [Std. Kan, kanamycin, reference compound] |  |  |  |  |  |  |  |  |  |  |  |  |  |  |  |  |  |  |  |  | Zone of Inhibition [1]: 31 mm; Zone of Inhibition ([2]; 30 μg/disc): 27 mm; Zone of Inhibition ([4]; 30 μg/disc): 29 mm; Zone of Inhibition ([5]; 30 μg/disc): 31 mm; Zone of Inhibition ([9]; 30 μg/disc): 31 mm; Zone of Inhibition ([13]; 30 μg/disc): 31 mm; Zone of Inhibition ([14]; 30 μg/disc): 27 mm; Zone of Inhibition ([15]; 30 μg/disc): 32 mm; Zone of Inhibition ([16]; 30 μg/disc): 24 mm; Zone of Inhibition ([17]; 30 μg/disc): 27 mm; Zone of Inhibition ([18]; 30 μg/disc): 27 mm; Zone of Inhibition ([19]; 30 μg/disc): 33 mm; Zone of Inhibition ([21]; 30 μg/disc): 28 mm; Zone of Inhibition ([22]; 30 μg/disc): 28 mm
6 | C[C@@H]1[C@H](O)[C@@H](C)/C=C/C=C/CC/C=C/C=C/C=C/C=C/C(O[C@H]2O[C@H](C)[C@@H](O)[C@H](N)[C@@H]2O)CC2O[C@](O)(CC(O)C(O)CCC(O)CC(O)CC(O)CC(=O)O[C@H]1C)CC(O)C2C(=O)O (some centres unmarked) [Std. Nystatin, nystatin, reference compound] |  |  |  |  |  |  |  |  |  |  |  |  |  |  |  |  |  |  |  |  | Zone of Inhibition ([3]; 50 μg/disc): 29 mm; Zone of Inhibition ([6]; 50 μg/disc): 28 mm; Zone of Inhibition ([7]; 50 μg/disc): 26 mm; Zone of Inhibition ([20]; 50 μg/disc): 30 mm
7 | CC[C@]1(O)C[C@H]2CN(CCc3c([nH]c4ccccc34)[C@@](C(=O)OC)(c3cc4c(cc3OC)N(C=O)[C@H]3[C@@](O)(C(=O)OC)[C@H](OC(C)=O)[C@]5(CC)C=CCN6CC[C@]43[C@@H]65)C2)C1 [Vincristine, vincristine, reference compound] |  |  |  |  |  |  |  | 3.48 ± 0.36 (≈ 4.22 µM) |  |  |  |  |  |  |  |  |  |  |  |  | 
8 | O.Oc1cc(O)c2c(c1)O[C@H](c1ccc(O)c(O)c1)[C@@H](O)C2 [catechin, reference compound] |  |  |  |  |  |  |  |  | 2.14 |  |  |  |  |  |  |  |  |  |  |  | 
